The NIST ThermoML archive (doi:10.1016/j.fluid.2015.09.050)

Settings: Liquid, pendant drop method

C [methane] + O
Settings	interfacial tension [mN/m]
311 K, 3390 kPa	66.03
311 K, 7540 kPa	59.95
311 K, 14380 kPa	57.94
311 K, 28210 kPa	52.29
311 K, 44730 kPa	51.43
311 K, 61300 kPa	49.28
311 K, 81600 kPa	50.39
373.2 K, 3650 kPa	54.76
373.2 K, 10070 kPa	50.64
373.2 K, 21140 kPa	48.29
373.2 K, 30540 kPa	45.02
373.2 K, 51020 kPa	42.2
373.2 K, 60310 kPa	41.61
373.2 K, 71050 kPa	41.92
373.2 K, 82760 kPa	41.93
423.2 K, 2740 kPa	49.23
423.2 K, 7290 kPa	46.41
423.2 K, 17170 kPa	42.69
423.2 K, 27790 kPa	40.72
423.2 K, 38470 kPa	38.35
423.2 K, 48440 kPa	39.43
423.2 K, 62280 kPa	38.6
423.2 K, 75910 kPa	39.19
423.2 K, 89770 kPa	38.67
473.2 K, 2410 kPa	40.35
473.2 K, 14090 kPa	34.86
473.2 K, 21220 kPa	34.2
473.2 K, 34790 kPa	32.44
473.2 K, 51540 kPa	30.53
473.2 K, 70120 kPa	31.46
473.2 K, 83440 kPa	30.74
